Laboratory results published in patent US12390508B2, “Brain natriuretic peptide engrafted antibodies” (Boehringer Ingelheim International GmbH, priority 2018, dated 2025).
Positions of bridges follow the written chain, without caps; N, C: chain ends. Residues, ends and D or L forms follow the SMILES beside them.

Tests used:
[1] = biological target: T1, insulin degrading enzyme (IDE) (Rattus norvegicus, UniProt P35559); experiment: Sensitivity towards proteolytic degradation by insulin degrading enzyme (IDE); details: 4 hours incubation with 0.6 μg/ml IDE at 37° C., then activity on the rat receptor cell line
T1 sequence (P35559 42-1019 limits assumed): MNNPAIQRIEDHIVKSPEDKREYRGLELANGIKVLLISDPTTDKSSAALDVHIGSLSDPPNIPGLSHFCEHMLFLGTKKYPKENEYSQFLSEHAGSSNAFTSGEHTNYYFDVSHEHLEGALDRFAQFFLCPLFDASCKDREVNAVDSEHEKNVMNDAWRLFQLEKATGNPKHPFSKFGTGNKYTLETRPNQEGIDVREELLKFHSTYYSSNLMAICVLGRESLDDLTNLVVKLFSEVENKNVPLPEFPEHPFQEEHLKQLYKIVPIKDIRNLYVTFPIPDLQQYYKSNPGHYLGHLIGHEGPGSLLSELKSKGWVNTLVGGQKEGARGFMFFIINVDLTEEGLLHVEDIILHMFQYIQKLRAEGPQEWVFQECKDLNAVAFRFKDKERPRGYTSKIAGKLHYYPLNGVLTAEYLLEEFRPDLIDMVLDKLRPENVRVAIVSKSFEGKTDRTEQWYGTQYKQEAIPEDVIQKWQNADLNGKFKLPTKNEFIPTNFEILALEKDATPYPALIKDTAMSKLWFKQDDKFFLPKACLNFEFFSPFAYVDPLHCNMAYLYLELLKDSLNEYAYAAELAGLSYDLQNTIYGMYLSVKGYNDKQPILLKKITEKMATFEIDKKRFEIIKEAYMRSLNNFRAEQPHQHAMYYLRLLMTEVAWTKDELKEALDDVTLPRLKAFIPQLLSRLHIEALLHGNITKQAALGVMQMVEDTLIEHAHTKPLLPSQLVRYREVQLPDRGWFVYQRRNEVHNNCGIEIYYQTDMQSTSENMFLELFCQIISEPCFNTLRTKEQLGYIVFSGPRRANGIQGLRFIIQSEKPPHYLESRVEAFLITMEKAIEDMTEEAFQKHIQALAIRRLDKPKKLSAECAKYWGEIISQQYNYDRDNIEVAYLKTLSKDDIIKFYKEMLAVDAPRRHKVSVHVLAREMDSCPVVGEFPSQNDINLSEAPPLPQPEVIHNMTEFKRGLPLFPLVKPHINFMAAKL

[2] = biological target: T2, neutral endopeptidase (NEP) (Homo sapiens, UniProt P08473); experiment: Sensitivity towards proteolytic degradation by neutral endopeptidase (NEP); assay type: in vitro ADME; details: 4 hours incubation with 0.6 μg/ml NEP at 37° C., then activity on the rat receptor cell line
T2 construct: purchased R&D Systems 1182-ZNC
T2 sequence (P08473 52-750 limits assumed): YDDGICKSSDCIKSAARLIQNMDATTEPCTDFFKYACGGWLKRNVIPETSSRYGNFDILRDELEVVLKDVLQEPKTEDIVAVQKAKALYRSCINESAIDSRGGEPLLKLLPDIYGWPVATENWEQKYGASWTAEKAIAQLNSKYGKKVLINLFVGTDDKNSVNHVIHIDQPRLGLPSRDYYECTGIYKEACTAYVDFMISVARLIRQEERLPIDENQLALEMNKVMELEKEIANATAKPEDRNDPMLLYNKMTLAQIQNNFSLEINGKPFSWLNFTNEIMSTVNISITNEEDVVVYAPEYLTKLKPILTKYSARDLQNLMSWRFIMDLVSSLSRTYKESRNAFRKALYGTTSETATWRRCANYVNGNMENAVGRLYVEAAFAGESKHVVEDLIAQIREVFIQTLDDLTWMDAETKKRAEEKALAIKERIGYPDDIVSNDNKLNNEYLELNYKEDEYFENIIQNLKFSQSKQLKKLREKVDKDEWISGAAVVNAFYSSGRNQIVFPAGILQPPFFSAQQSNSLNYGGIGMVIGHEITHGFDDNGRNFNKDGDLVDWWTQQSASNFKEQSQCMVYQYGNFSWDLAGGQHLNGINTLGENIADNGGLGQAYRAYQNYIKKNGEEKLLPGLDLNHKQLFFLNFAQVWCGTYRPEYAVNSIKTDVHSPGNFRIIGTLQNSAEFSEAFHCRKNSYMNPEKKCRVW

sensitivity towards proteolytic degradation by IDE [1]: high sensitivity
sensitivity towards proteolytic degradation by NEP [2]: high sensitivity
SMILES: CC[C@H](C)[C@@H]1NC(=O)[C@H](CCCNC(=N)N)NC(=O)[C@H](CC(=O)O)NC(=O)[C@H]([C@@H](C)CC)NC(=O)[C@H](CCCCN)NC(=O)[C@H](CCC(N)=O)NC(=O)CNC(=O)[C@H](Cc2ccccc2)NC(=O)[C@@H](NC(=O)[C@H](CO)NC(=O)[C@H](CO)NC(=O)[C@H](CO)NC(=O)[C@H](Cc2c[nH]cn2)NC(=O)[C@H](C)NC(=O)[C@H](CCSC)NC(=O)[C@H](CCCCN)NC(=O)[C@H](CO)NC(=O)[C@@H](N)CC(N)=O)CSSC[C@@H](C(=O)N[C@@H](CC(=O)O)C(=O)NCC(=O)N[C@@H](CC(C)C)C(=O)N[C@@H](CCCNC(=N)N)C(=O)N[C@@H](CC(C)C)C(=O)N[C@@H](Cc2ccccc2)C(=O)O)NC(=O)CNC(=O)[C@H](CC(C)C)NC(=O)[C@H](CCCNC(=N)N)NC(=O)[C@H](CO)NC(=O)[C@H](C(C)C)NC(=O)[C@H](C)NC(=O)CNC1=O [BNP, reference compound] (H-NSKMAHSSSCFGQKIDRIGAVSRLGCDGLRLF-OH; disulfide 10-26; N-terminus and C-terminus assumed)
